The text below walks through data of patent US10314838B2, “Compositions of buprenorphine and μ antagonists” (priority 2011, dated 2019).

Broadly, the Cmax is the maximum level reached in the sampled fluid or tissue. By pIC50 is commonly meant −log10 of the IC50, conventionally taken in molar units.

pIC50: −log10 of the molar value. Like-named read-outs stand apart in the source and are kept apart here.

The nature of series [1]: Plasma Cmax in patients (LC/MS/MS). The note with it: human, 8 mg.
Protocol: Samples were analyzed using a 50 μL aliquot volume and a protein-precipitation extraction procedure followed by liquid chromatography/tandem mass spectrometry (LC/MS/MS).
Samples were analyzed using a 400 μL aliquot volume and a solid-phase extraction procedure followed by liquid chromatography/tandem mass spectrometry (LC/MS/MS).
Another series concerns the target T1, human μ opioid receptor (Homo sapiens, UniProt P35372).
T1 construct: expressed in transfected cells; membranes used
The experiment in a line: biochemical. How it is done: Other functional assays could also be used based on cAMP or other downstream end-points following receptor activation; however the GTPγS is the preferred approach. […] Since the AAnAI is based on Cmax it can be calculated for any route of administration for the combination.
These values were determined using the GTPγS functional assay.
The [^35S]GTPγS assay measures the functional properties of a compound by quantifying the level of G-protein activation following agonist binding in studies using stably transfected cells, and is considered to be a measure of the efficacy of a compound. Membranes from CHO (Chinese Hamster Ovary) cells that stably expressed the cloned human μ opioid receptor were used in the experiments. […] The assay buffer consisted of 50 mM Tris-HCl, pH 7.4, 3 mM MgCl2, 0.2 mM EGTA, 3 μM GDP, and 100 mM NaCl. The final concentration of [35S]GTPγS was 0.080 nM. Nonspecific binding was measured by inclusion of 10 μM GTPγS. Binding was initiated by the addition of the membranes. After an incubation of 60 min at 30° C., the samples were filtered through Schleicher & Schuell No. 32 glass fiber filters. The filters were washed three times with cold 50 mM Tris-HCl, pH 7.5, and were counted in 2 mL of Ecoscint scintillation fluid.

Series [2] is described as follows: Rat plasma Cmax of antagonists given with buprenorphine. The note with it: male, sc.
Protocol: Male rats weighing between 300-400 grams, the same weight range used in the microdialysis studies, were used for these PK experiments. […] Sample of blood were collected at 5, 15, 30, 60 and 120 minutes post dosing. […] The collection tubes were inverted 10-15 times and then held on ice prior to centrifugation.
The subject of series [3] is NAc-sh dopamine and 5-HIAA. As to the kind of experiment: NAc-sh dopamine and 5-HIAA in WKY rats undergoing forced swim test. In kind it is in vivo, rat. The note with it: highest dose of Compound 1, buprenorphine 0.1 mg/kg, WKY rats in FST. How it is done:
FIG. 6: The effect of Compound-1 on dopamine efflux in WKY rats undergoing forced swim test after treatment with Buprenorphine (0.1 mg/kg).
FIG. 7: The efflux of Compound-1 on 5-Hydroxyindoleacetic acid (5-HIAA) release in WKY rats undergoing the forced swim test after treatment with Buprenorphine (0.1 mg/kg).

Series [4] relates to dopamine efflux in the Nucleus Accumbens shell (NAc-sh). The experiment in a line: In vivo microdialysis, buprenorphine-induced dopamine efflux. The note with it: antagonist plus buprenorphine 0.1 mg/kg SC.
Protocol: Experiments were conducted in rats to assess the ability of opioid antagonists to modulate buprenorphine-induced dopamine efflux in the Nucleus Accumbens shell (NAc-sh) region of the mesolimbic region of the brain. Male rats weighing 300-400 grams were used for all studies. To measure the efflux of dopamine in the NAc-sh an in vivo microdialysis method was utilized in free-moving rats. This method allows the sampling of extracellular cerebrospinal fluid (CSF) from specific brain regions of interest and measurement of neurotransmitter concentrations following the analysis of sampled dialysate with HPLC-EC.
Each rat underwent surgical implantation of microdialysis guide cannula (CMA 12, CMA Microdialysis) to facilitate the insertion of the microdialysis probe later on. Rats were anesthetized with a mixture of ketamine/xylazine (80/6 mg/kg IP) and placed in a stereotaxic apparatus. […] Guide cannula were capped with dummy probes until microdialysis probe insertion. On the day prior to experimentation (3-4 days post-surgery), animals were weighed to determine appropriate dose for test articles. A microdialysis probe (CMA 12, 2 mm membrane, CMA microdialysis) was then inserted through the guide cannula. […] Each sample was analyzed via HPLC-EC to determine neurotransmitter concentration of dopamine based upon a six-point standard curve.
The conditions of series [5]: 50 mg dose of naltrexone; cited from earlier work.

T1 sequence (P35372 whole entry): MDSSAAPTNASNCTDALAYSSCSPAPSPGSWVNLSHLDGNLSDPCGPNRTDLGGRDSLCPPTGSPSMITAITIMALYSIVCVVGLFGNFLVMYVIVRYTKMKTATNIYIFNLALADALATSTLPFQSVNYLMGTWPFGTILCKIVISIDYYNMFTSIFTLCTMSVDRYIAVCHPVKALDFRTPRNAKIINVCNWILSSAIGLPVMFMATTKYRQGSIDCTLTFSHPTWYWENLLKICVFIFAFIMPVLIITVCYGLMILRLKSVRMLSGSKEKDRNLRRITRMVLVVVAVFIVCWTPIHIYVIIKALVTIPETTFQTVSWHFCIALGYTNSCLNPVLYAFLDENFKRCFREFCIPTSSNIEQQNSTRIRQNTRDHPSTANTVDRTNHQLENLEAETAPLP

As for `NC(=O)c1ccc2c(c1O)[C@]13CCN(CC4CC4)[C@H](C2)[C@]1(O)CCC(=O)C3` [Compound-1], the highest concentration (Cmax) turned out to be 25.8 ng/mL in series [1], 69.6 nM in series [1] (other: sublingual), 11.8 ng/mL in series [2] (0.3 mg/kg) and 75.5 ng/mL in series [2] (1 mg/kg). Besides, the pIC50 at human μ opioid receptor is 9.05. In addition, on human μ opioid receptor, the Imax is given as more than 95%. Further, the “Buprenorphine effect on 5-HIAA” value in series [3] was “complete attenuation of buprenorphine effects”. Further, in series [3], the “Buprenorphine effect on NAc-sh dopamine” value is on record as “complete attenuation of buprenorphine effects”.

As to `C=C1CC[C@@]2(O)[C@H]3Cc4ccc(C(N)=O)c(O)c4[C@@]2(CCN3CC2CC2)C1` [Compound-10], the pIC50 on human μ opioid receptor was 9.64. Besides, the values for the Cmax in series [2] (0.03 mg/kg), in series [2] (0.1 mg/kg) and in series [2] (0.3 mg/kg) were 2.24 ng/mL, 18.1 ng/mL and 29.5 ng/mL, respectively.

In the case of `C=C1CC[C@@]2(O)[C@H]3Cc4ccc(O)c5c4[C@@]2(CCN3CC2CC2)[C@H]1O5` [Nalmefene, nalmefene], the Cmax stood at 14.1 ng/mL in series [2] (0.1 mg/kg), 25.6 ng/mL in series [2] (0.3 mg/kg) and 162 ng/mL in series [2] (1 mg/kg). Also, in series [4], the “NAc-sh dopamine efflux induced by buprenorphine” value was “more potent”.

For `O=C1CC[C@@]2(O)[C@H]3Cc4ccc(O)c5c4[C@@]2(CCN3CC2CC2)[C@H]1O5` [Naltrexone, naltrexone], the maximum concentration (Cmax) was 19.3 ng/mL in series [2] (0.1 mg/kg), 76.9 ng/mL in series [2] (0.3 mg/kg), 169 ng/mL in series [2] (1 mg/kg) and “approximately 10 ng/mL” in series [5].
